From ChEMBL document CHEMBL6153142 (J Med Chem, 2025)
≈ marks a conversion by molar mass, not a printed value. Calls of active or inactive are those of the source. The rule behind the calls is not given here.

Columns and labels:
[1] = Volume of distribution at steady state in C57BL6 mouse at 0.3 mg/kg, iv measured upto 24 hrs by LC-MS/MS analysis; format: ADME, organism-based; settings: in vivo, read-out: Vdss
[2] = Oral bioavailability in cynomolgus monkey at 0.3 mg/kg measured upto 24 hrs by LC-MS/MS analysis; format: ADME, organism-based, Macaca fascicularis; settings: in vivo
[3] = Clearance in Sprague-Dawley rat at 1 mg/kg, iv measured upto 24 hrs by LC-MS/MS analysis; format: ADME, organism-based; settings: in vivo
[4] = Cmax in Beagle dog at 30 mg/kg, po measured upto 24 hrs by LC-MS/MS analysis; format: ADME, organism-based, Canis lupus familiaris; settings: in vivo
[5] = MRT in Sprague-Dawley rat at 3 mg/kg, po or 1 mg/kg, iv by LC-MS/MS analysis; format: ADME, organism-based; settings: in vivo
[6] = Cmax in fed Beagle dog at 30 mg/kg, po measured upto 24 hrs by LC-MS/MS analysis; format: ADME, organism-based, Canis lupus familiaris; settings: in vivo
[7] = AUC (0 to infinity) in Beagle dog at 0.1 mg/kg, iv measured upto 24 hrs by LC-MS/MS analysis; format: ADME, organism-based, Canis lupus familiaris; settings: in vivo
[8] = Half life in Sprague-Dawley rat at 3 mg/kg, po or 1 mg/kg, iv by LC-MS/MS analysis; format: ADME, organism-based; settings: in vivo
[9] = AUC (0 to infinity) in C57BL6 mouse at 0.3 mg/kg, po measured upto 24 hrs by LC-MS/MS analysis; format: ADME, organism-based; settings: in vivo
[10] = Volume of distribution at steady state in Beagle dog at 1 mg/kg, iv measured upto 24 hrs by LC-MS/MS analysis; format: ADME, organism-based, Canis lupus familiaris; settings: in vivo, read-out: Vdss
[11] = Volume of distribution at steady state in Sprague-Dawley rat at 0.1 mg/kg, iv measured upto 24 hrs by LC-MS/MS analysis; format: ADME, organism-based; settings: in vivo, read-out: Vdss
[12] = AUC (0 to infinity) in Sprague-Dawley rat at 3 mg/kg, po measured upto 24 hrs by LC-MS/MS analysis; format: ADME, organism-based; settings: in vivo
[13] = Volume of distribution at steady state in Beagle dog at 0.1 mg/kg, iv measured upto 24 hrs by LC-MS/MS analysis; format: ADME, organism-based, Canis lupus familiaris; settings: in vivo, read-out: Vdss
[14] = Cmax in C57BL6 mouse at 0.3 mg/kg, po measured upto 24 hrs by LC-MS/MS analysis; format: ADME, organism-based; settings: in vivo
Mus musculus = assay: Anti-inflammatory activity in ovalbumin-induced BALB/c mouse model assessed as reduction in eosinophil count in BALF at 6 mg/kg, po bid administered twice daily for 3 days; format: functional, organism-based; settings: time 3.0 day
[15] = Half life in Beagle dog at 0.1 mg/kg, iv measured upto 24 hrs by LC-MS/MS analysis; format: ADME, organism-based, Canis lupus familiaris; settings: in vivo
[16] = Microsomal stability in mouse liver microsome assessed as intrinsic clearance; format: ADME; settings: liver microsomes, read-out: CLH
[17] = Metabolic stability in human Hepatocyte assessed as clearance; format: ADME, cell-based; settings: hepatocytes
[18] = Volume of distribution at steady state in Sprague-Dawley rat at 3 mg/kg, po or 1 mg/kg, iv by LC-MS/MS analysis; format: ADME, organism-based; settings: in vivo
[19] = Microsomal stability in rat liver microsome assessed as intrinsic clearance; format: ADME; settings: microsomes
[20] = Half life in Sprague-Dawley rat at 1 mg/kg, iv measured upto 24 hrs by LC-MS/MS analysis; format: ADME, organism-based; settings: in vivo
Cytochrome P450 3A4 = Cytochrome P450 3A4 (Homo sapiens, UniProt P08684); assay: Inhibition of CYP3A4 (unknown origin) at 25 uM relative to control; format: ADME
[21] = Metabolic stability in dog Hepatocyte assessed as clearance; format: ADME, cell-based, Canis lupus familiaris; settings: hepatocytes
[22] = AUC (0 to infinity) in Beagle dog at 30 mg/kg, po measured upto 24 hrs by LC-MS/MS analysis; format: ADME, organism-based, Canis lupus familiaris; settings: in vivo
[23] = Metabolic stability in monkey Hepatocyte assessed as clearance; format: ADME, cell-based, Macaca mulatta; settings: rhesus monkey, hepatocytes
[24] = Protein binding in human plasma assessed as free fraction; format: ADME, cell-free
[25] = AUC (0 to infinity) in Sprague-Dawley rat at 1 mg/kg, iv measured upto 24 hrs by LC-MS/MS analysis; format: ADME, organism-based; settings: in vivo
[26] = AUC (0 to infinity) in fed Beagle dog at 30 mg/kg, po measured upto 24 hrs by LC-MS/MS analysis; format: ADME, organism-based, Canis lupus familiaris; settings: in vivo
[27] = Microsomal stability in dog liver microsome assessed as intrinsic clearance; format: ADME, Canis lupus familiaris; settings: liver microsomes, read-out: CLH
[28] = Drug concentration in C57BL/6 mouse blood at 10 mg/kg, po; format: ADME, organism-based; settings: in vivo, read-out: Ct
[29] = Volume of distribution at steady state in Sprague-Dawley rat at 1 mg/kg, iv measured upto 24 hrs by LC-MS/MS analysis; format: ADME, organism-based; settings: in vivo, read-out: Vdss
[30] = AUC (0 to infinity) in cynomolgus monkey at 0.3 mg/kg, po measured upto 24 hrs by LC-MS/MS analysis; format: ADME, organism-based, Macaca fascicularis; settings: in vivo
[31] = Metabolic stability in rat Hepatocyte assessed as clearance; format: ADME, cell-based; settings: hepatocytes
[32] = Cmax in cynomolgus monkey at 0.3 mg/kg, po measured upto 24 hrs by LC-MS/MS analysis; format: ADME, organism-based, Macaca fascicularis; settings: in vivo
[33] = target: T1, Leukotriene C4 synthase (Mus musculus) (UniProt Q60860); assay: In-vivo inhibition of LTC4S in mastoparan-induced C57BL/6 mouse model assessed as reduction in LTE4 level in skin at 0.1 mg/kg, po preincubated for 1 hr by LC-MS analysis; format: functional, organism-based
T1 sequence (whole entry): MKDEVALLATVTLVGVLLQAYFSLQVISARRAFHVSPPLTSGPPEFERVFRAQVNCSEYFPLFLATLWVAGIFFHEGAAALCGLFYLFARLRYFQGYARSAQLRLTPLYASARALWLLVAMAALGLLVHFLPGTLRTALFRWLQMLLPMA

[34] = AUC (0 to infinity) in cynomolgus monkey at 0.1 mg/kg, iv measured upto 24 hrs by LC-MS/MS analysis; format: ADME, organism-based, Macaca fascicularis; settings: in vivo
[35] = Oral bioavailability in Sprague-Dawley rat at 3 mg/kg measured upto 24 hrs by LC-MS/MS analysis; format: ADME, organism-based; settings: in vivo
[36] = Drug concentration in C57BL/6 mouse blood at 0.3 mg/kg, po; format: ADME, organism-based; settings: in vivo, read-out: Ct
[37] = target: T1, Leukotriene C4 synthase (Mus musculus); assay: In-vivo inhibition of LTC4S in mastoparan-induced C57BL/6 mouse model assessed as reduction in LTE4 level in skin at 0.3 mg/kg, po preincubated for 1 hr by LC-MS analysis; format: functional, organism-based
[38] = Octanol/water distribution coefficient log D of the compound at pH 7.4 by shake flask based LC-MS/MS analysis; format: physicochemical
[39] = Volume of distribution at steady state in cynomolgus monkey at 0.1 mg/kg, iv measured upto 24 hrs by LC-MS/MS analysis; format: ADME, organism-based, Macaca fascicularis; settings: in vivo, read-out: Vdss
Cytochrome P450 2C9 = Cytochrome P450 2C9 (Homo sapiens, UniProt P11712); assay: Inhibition of CYP2C9 (unknown origin) at 25 uM relative to control; format: ADME
[40] = Cmax in Sprague-Dawley rat at 3 mg/kg, po measured upto 24 hrs by LC-MS/MS analysis; format: ADME, organism-based; settings: in vivo
[41] = Equilibrium solubility of compound at pH 6.8 using amorphous form of sample by HPLC analysis; format: physicochemical; settings: buffer
[42] = Half life in Beagle dog at 1 mg/kg, iv measured upto 24 hrs by LC-MS/MS analysis; format: ADME, organism-based, Canis lupus familiaris; settings: in vivo
[43] = Clearance in Beagle dog at 1 mg/kg, iv measured upto 24 hrs by LC-MS/MS analysis; format: ADME, organism-based, Canis lupus familiaris; settings: in vivo

Chain of Cytochrome P450 3A4 (P08684 whole entry): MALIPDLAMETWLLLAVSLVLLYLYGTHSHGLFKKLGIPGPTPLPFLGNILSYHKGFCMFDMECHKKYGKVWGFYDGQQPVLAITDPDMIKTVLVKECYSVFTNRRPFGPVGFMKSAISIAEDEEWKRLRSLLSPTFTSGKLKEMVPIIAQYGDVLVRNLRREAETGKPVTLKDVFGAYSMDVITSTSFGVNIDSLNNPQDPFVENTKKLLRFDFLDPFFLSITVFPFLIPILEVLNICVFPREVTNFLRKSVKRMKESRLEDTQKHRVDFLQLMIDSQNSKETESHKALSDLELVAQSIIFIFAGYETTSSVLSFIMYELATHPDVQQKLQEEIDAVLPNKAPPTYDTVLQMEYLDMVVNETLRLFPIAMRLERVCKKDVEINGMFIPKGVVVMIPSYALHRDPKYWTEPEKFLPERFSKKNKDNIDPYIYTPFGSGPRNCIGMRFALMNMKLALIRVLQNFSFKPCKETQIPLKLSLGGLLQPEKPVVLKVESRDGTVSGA
Chain of Cytochrome P450 2C9 (P11712 whole entry): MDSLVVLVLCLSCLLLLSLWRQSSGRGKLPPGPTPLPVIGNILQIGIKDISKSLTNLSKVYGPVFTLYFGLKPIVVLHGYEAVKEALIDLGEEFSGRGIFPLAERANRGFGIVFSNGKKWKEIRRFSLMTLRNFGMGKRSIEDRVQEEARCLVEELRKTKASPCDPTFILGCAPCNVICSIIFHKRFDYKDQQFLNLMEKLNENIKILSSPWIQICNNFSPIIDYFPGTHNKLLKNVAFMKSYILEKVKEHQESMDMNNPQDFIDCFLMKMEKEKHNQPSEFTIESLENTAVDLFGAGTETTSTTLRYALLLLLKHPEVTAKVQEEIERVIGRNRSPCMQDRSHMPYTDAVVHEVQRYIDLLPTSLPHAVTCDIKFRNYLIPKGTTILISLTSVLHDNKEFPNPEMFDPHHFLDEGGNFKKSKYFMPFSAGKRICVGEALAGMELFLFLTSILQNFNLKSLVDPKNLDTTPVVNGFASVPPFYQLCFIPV

**Q.** With O=C1CCCC2(CCN(c3cc(OCC(F)(F)F)ncn3)CC2)N1c1ccc(F)c(F)c1 as the compound, how does the Vd [1] read?
**A.** The Vd was 1.3 L/kg.

**Q.** And the bioavailability [2]?
**A.** The bioavailability was 26%.

**Q.** What about the clearance [3] of the same compound?
**A.** Its clearance is 11 mL/min/kg.

**Q.** What about the Cmax [4] of the same compound?
**A.** Its Cmax is 275 nM.

**Q.** And the MRT [5]?
**A.** The MRT was 3.3 h.

**Q.** And the Cmax [6]?
**A.** Its Cmax is 8350 nM.

**Q.** And the AUC [7]?
**A.** Its AUC is 1.16 µM·h.

**Q.** What about the half-life [8] of the same compound?
**A.** The half-life was 2.8 h.

**Q.** What about the AUC(0-inf) [9] of the same compound?
**A.** Its AUC(0-inf) is 2.03 µM·h.

**Q.** What about the Vd [10] of the same compound?
**A.** The Vd was 3.5 L/kg.

**Q.** What about the Vd [11] of the same compound?
**A.** Its Vd is 2.3 L/kg.

**Q.** And the AUC(0-inf) [12]?
**A.** The AUC(0-inf) was 1.81 µM·h.

**Q.** And the Vd [13]?
**A.** Its Vd is 5.8 L/kg.

**Q.** And the Cmax [14]?
**A.** The Cmax was 383 nM.

**Q.** What about the Activity (Mus musculus) of the same compound?
**A.** Its Activity is “Active”.

**Q.** And the half-life [15]?
**A.** Its half-life is 3.9 h.

**Q.** And the microsomal CLint [16]?
**A.** Its microsomal CLint is 36 µL/min/mg.

**Q.** What about the CLH [17] of the same compound?
**A.** The CLH was 4 µL/min.

**Q.** And the Vdss [18]?
**A.** Its Vdss is 2.3 L/kg.

**Q.** And the CLH [19]?
**A.** The CLH was 20 µL/min.

**Q.** And the half-life [20]?
**A.** The half-life was 2.9 h.

**Q.** What about the “inhibition (INH)” value (Cytochrome P450 3A4) of the same compound?
**A.** The value was “Not_active”.

**Q.** What about the CLH [21] of the same compound?
**A.** Its CLH is 20 µL/min.

**Q.** What about the AUC(0-inf) [22] of the same compound?
**A.** The AUC(0-inf) was 3.17 µM·h.

**Q.** What about the CLH [23] of the same compound?
**A.** Its CLH is 23 µL/min.

**Q.** What about the fraction unbound [24] of the same compound?
**A.** Its fraction unbound is 0.064.

**Q.** And the AUC(0-inf) [25]?
**A.** The AUC(0-inf) was 3.42 µM·h.

**Q.** What about the AUC(0-inf) [26] of the same compound?
**A.** Its AUC(0-inf) is 93.4 µM·h.

**Q.** What about the microsomal CLint [27] of the same compound?
**A.** Its microsomal CLint is 68 µL/min/mg.

**Q.** What about the concentration [28] of the same compound?
**A.** The concentration was 2910 nM.

**Q.** And the Vd [29]?
**A.** Its Vd is 2.3 L/kg.

**Q.** What about the AUC(0-inf) [30] of the same compound?
**A.** Its AUC(0-inf) is 0.783 µM·h.

**Q.** And the CLH [31]?
**A.** Its CLH is 33 µL/min.

**Q.** What about the Cmax [32] of the same compound?
**A.** The Cmax was 290 nM.

**Q.** What about the inhibition [33] of the same compound?
**A.** Its inhibition is 64%.

**Q.** And the AUC [34]?
**A.** The AUC was 1.85 µM·h.

**Q.** And the bioavailability [35]?
**A.** Its bioavailability is 55%.

**Q.** And the concentration [36]?
**A.** The concentration was 56 nM.

**Q.** And the inhibition [37]?
**A.** The inhibition was 30%.

**Q.** What about the logD [38] of the same compound?
**A.** Its logD is 3.4.

**Q.** What about the Vd [39] of the same compound?
**A.** The Vd was 2.8 L/kg.

**Q.** What about the “inhibition (INH)” value (Cytochrome P450 2C9) of the same compound?
**A.** The value was “Not_active”.

**Q.** And the Cmax [40]?
**A.** The Cmax was 194 nM.

**Q.** And the solubility thermodynamic [41]?
**A.** The solubility thermodynamic was 320 µM (≈ 146 µg/mL).

**Q.** What about the half-life [42] of the same compound?
**A.** The half-life was 4.5 h.

**Q.** And the clearance [43]?
**A.** Its clearance is 14 mL/min/kg.
